# Where “and” joins values, the source holds several entries; their conditions need not be identical. Equal values may be shown once. Read-outs that look alike come from different tables or passages of the source. Where a SMILES comes first, the peptide text is derived from it.
# Assays:
# [1] = Solution-gel (sol-gel) transition of each peptide; assay type: physicochemical
# Protocol: In compositions, the influence of pH of 3 to 9, ionic strength of about 0 M to about 5 M salt concentration (for example, ZnCl2, NaCl etc.) via addition of any monovalent and/or divalent cation or temperature plays a critical role in preventing the self-assembly in formulation. In compositions, the pH maybe in the range of about 3 to 9. In some compositions, the amount of peptide is in a range of about 0.001% to 30% by weight and the temperature of the composition may be in a range of about 19° C. to 42° C.
# [2] = tested on: existing elastin fibers; assay: Temperature dependent self-assembly of ELPs in decellularized ex vivo dermises (Elastin van Gieson staining, elastin fiber density); details: for Elastin fiber integrated density (FIG. 1B): 100 μg/mL, compared to PBS of the same temperature; for Elastin van Gieson staining signal (FIG. 1A): decellularized dermises submerged in 100 μg/mL peptide, five days, 4, 37 or 42° C., compared to PBS
# Protocol: The generation of elastin fibers involves the self-assembly process of coacervation causing an accumulation of hydrophobic tropoelastin molecules prior to being cross-linked at lysines to generate mature elastin fibers. Elastin-like peptides (ELPs) undergo temperature-driven conformational change upon heat referred to as inverse temperature transition (ITT).
# Following decellularization, the skins, here after referred to as dermises, were washed three times in PBS buffer (1X) for 2 hours each. The decellularized dermises were submerged in either PBS, 100 μg/mL Pal-VGVAPG, or Ace-IGVAPG, for five days, with daily solution changes. Three ex vivo dermises for each treatment were incubated at 4° C., 37° C., or 42° C. The decellularized dermises were fixed overnight in 10% formalin, paraffin embedded and sections at 8 μm. H&E and Elastin van Gieson staining were performed to confirm decellularization and to visualize elastin fibers, respectively. Elastin fiber density quantification was performed via thresholding the elastin fibers using NIH ImageJ software and measurements were recorded.
# H&E staining confirmed that the tissues were successfully decellularized (data not shown). […] FIG. 1A indicates the representative images of Elastin van Gieson stained decellularized dermises which were incubated with Pal-VGVAPG and Ace-IGVAPG at different temperatures while concentration was kept constant (100 μg/mL). Elastin fibers are stained black at a scale bar of 50 μm.
# Statistical significance of differences between means was performed using two-way ANOVA followed by Tukey's multiple comparisons test. Error bars represent standard error of the mean (SEM). All analyses were performed using Prism 8 software (GraphPad, San Diego, CA, U.S.A.).
# [3] = tested on: pre-existing elastin fibers; assay: Concentration driven self-assembly in ex vivo skin treated topically (Elastin van Gieson stain); details: topical
# Protocol: Self-assembly of biomolecules is dependent on a critical self-assembly concentration, where self-assembly biomolecules remain as monomers below a critical concentration and assemble above a specific concentration threshold.
# Biopsies (12-mm) were treated topically with various concentrations of Ace-IGVAPG or Pal-VGVAPG (12.5, 25, 50 μg/mL) while being maintained in DMEM containing 10% FBS and 1% penicillin/streptomycin/amphotericin B. The skins were formalin fixed, paraffin embedded, sectioned at 8 μm and stain for elastin with the Elastin van Gieson stain.
# [4] = tested on: ex vivo skin; assay: pH dependent peptide self-assembly within intact ex vivo skin (click histology); details: propargylglycine versions of the peptides, 0.6 mg/mL, topical, pH 4 to 9
# Protocol: To aid in visualization of the effects of pH and salinity on peptide self-assembly within tissue, peptides were labeled via F-moc chemistry with propargylglycine. Biopsies (12-mm) of abdominal skin explants were isolated, maintained, as stated in example 4, and were treated topically with the propargylglycine labeled peptides ([…]), twice a day for 5 days. The propargylglycine labeled peptides included A6K, IEIK-13, KLD-12, RADA-16, IGVPAG, and VGVPAG.
# To determine how pH and salinity influences peptide assembly in the skin, the propargylglycine labeled peptides were prepared at various pH or salinity pH 3 to 9 or containing a salt content of 0.1-3.0%, respectively. The skins were fixed, cryoprotected, cryosectioned (8 μm) and stored at −20° C. until Copper(I)-Catalyzed Alkyne-Azide Cycloaddition (CuAAC), or click chemistry, was performed to detect peptide assembly. Representative results are shown herein.
# The sections were washed, mounted with Fluoromount-G plus DAPI, and were imaged using the Zeiss Axio Observer Z1 Fluorescence Motorized Microscope.
# Click chemistry is a technique that uses two biologically inert functional groups, an alkyne and an azide, which form a triazole in the presence of Copper(I). The alkyne on the terminus of the peptide negligibly impacts the aspects of molecule that will impact the penetration of the peptide in tissue (i.e. molecular weight, log P, isoelectric point, and self-assembly) allowing for the peptide to penetrate based on its inherent properties. Once the alkyne-peptide is delivered to the tissue, the sample is fixed, and “stained” with an azido-fluorophore. […] This click histology protocol allows for the peptide of interest to be selectively detected via fluorescence microscopy in the presence of endogenous peptides and/or proteins. […]
# [5] = tested on: ex vivo skin biopsies; assay: Skin elasticity (percent recovery) of ex vivo skin biopsies, TA.XT Plus Texture Analyzer; details: 25 μg/mL, 24 h topical treatment
# Protocol: Following 24 hours, the TA.XT Plus Texture Analyzer was used to indent ex vivo skin with a 7-mm cylindrical probe with 40% strain and a withdrawal rate of 0.1 mm/s. The TA.XT Plus software generated a curve representative of the force (g) applied to the probe by the biopsy overtime (sec) and the areas under the curve for the duration of indentation and the withdrawal time of the probe were used to calculate the percent recovery.
# A purely elastic material has a percent recovery of 100%. Since skin is viscoelastic, its recovery will never be equal to a pure elastic material, ex vivo skin, for example, has a percent recovery of 25% to 35%.
# [6] = tested on: skin layers; assay: Triggers of self-assembly within the skin layers
smiles,measurement,setting,value
"C[C@H](N)C(=O)N[C@@H](C)C(=O)N[C@@H](C)C(=O)N[C@@H](C)C(=O)N[C@@H](C)C(=O)N[C@@H](C)C(=O)N[C@@H](CCCCN)C(N)=O [AAAAAAK, A6K] (H-AAAAAAK-NH2)",C0 for sol-gel transition by weight of the composition (w/w),[1],greater than 2%
"CC[C@H](C)[C@H](NC(C)=O)C(=O)NCC(=O)N[C@H](C(=O)N[C@H](C)C(=O)N1CCC[C@H]1C(=O)NCC(=O)O)C(C)C [ACE-IGVAPG, Elastin hexapeptide] (HELM PEPTIDE1{[ac].I.G.V.[dA].P.G}$$$$V2.0)",Elastin fiber integrated density (FIG. 1B),[2]; 42° C.,significant increase
same,Elastin van Gieson staining signal (FIG. 1A),[2],highest increase at 37 °C
same,"Elastin intensity (Elastin van Gieson stain, FIG. 2)",[3]; 25 μg/mL,increase
same,"Elastin intensity (Elastin van Gieson stain, FIG. 2)",[3]; 50 μg/mL,increase
same,pH level at which peptide self-assembly was observed within the lower layers of the skin,[4],5 and 7
same,Greater recovery than non-treated samples,[5],about 25%
same,Percent recovery compared to non-treated controls (FIG. 6B),[5]; p=0.0056,significantly higher
"CC[C@H](C)[C@H](N)C(=O)N[C@@H](CCC(=O)O)C(=O)N[C@H](C(=O)N[C@@H](CCCCN)C(=O)N[C@H](C(=O)N[C@@H](CCC(=O)O)C(=O)N[C@H](C(=O)N[C@@H](CCCCN)C(=O)N[C@H](C(=O)N[C@@H](CCC(=O)O)C(=O)N[C@H](C(=O)N[C@@H](CCCCN)C(=O)N[C@H](C(N)=O)[C@@H](C)CC)[C@@H](C)CC)[C@@H](C)CC)[C@@H](C)CC)[C@@H](C)CC)[C@@H](C)CC [IEIKIEIKIEIKI, IEK-13]",Sol-gel transition pH,[1],3
same,Temperature trigger,[1]; sol-gel transition,YES
same,C0 for sol-gel transition by weight of the composition (w/w),[1]; w/w of the composition,2%
"CC(C)C[C@H](NC(=O)[C@H](CC(=O)O)NC(=O)[C@H](CC(C)C)NC(=O)[C@H](CCCCN)NC(=O)[C@H](CC(C)C)NC(=O)[C@H](CC(=O)O)NC(=O)[C@H](CC(C)C)NC(=O)[C@H](CCCCN)NC(=O)[C@H](CC(C)C)NC(=O)[C@H](CC(=O)O)NC(=O)[C@H](CC(C)C)NC(=O)[C@@H](N)CCCCN)C(N)=O [KLDLKLDLKLDL, KLD-12] (H-KLDLKLDLKLDL-NH2)",Sol-gel transition pH,[1],5
same,C0 for sol-gel transition by weight of the composition (w/w),[1]; w/w of the composition,2%
same,pH level at which peptide self-assembly was observed within the lower layers of the skin,[4],6
"CCCCCCCCCCCCCCCC(=O)NCC(=O)N[C@@H](Cc1cnc[nH]1)C(=O)O [PAL-GH, Palmityl dipeptide] (HELM PEPTIDE1{[CCCCCCCCCCCCCCCC(=O)[*:2]].G.H}$$$$V2.0)",C0 for sol-gel transition by weight of the composition (w/w),[1],1.25%
same,Ionic strength trigger,[1],YES
same,Sol-gel transition pH,[1],5
same,Temperature trigger,[1],YES
"CCCCCCCCCCCCCCCC(=O)N[C@@H](CCCCN)C(=O)N[C@H](C(=O)N[C@H](C(=O)N[C@@H](CCCCN)C(=O)N[C@@H](CO)C(=O)O)[C@@H](C)O)[C@@H](C)O [PAL-KTTKS, Palmitoyl pentapeptide-4] (HELM PEPTIDE1{[CCCCCCCCCCCCCCCC(=O)[*:2]].K.T.T.K.S}$$$$V2.0)",Sol-gel transition pH,[1],5
same,Temperature trigger,[1]; sol-gel transition,YES
same,C0 for sol-gel transition by weight of the composition (w/w),[1]; w/w of the composition,0.5%
same,Concentration trigger of self-assembly within the skin layers,[6],≥ 0.5 % w/w
same,Temperature trigger of self-assembly within the skin layers,[6],37 °C
same,pH trigger of self-assembly within the skin layers,[6],5
"CCCCCCCCCCCCCCCC(=O)N[C@H](C(=O)NCC(=O)N[C@H](C(=O)N[C@@H](C)C(=O)N1CCC[C@H]1C(=O)NCC(=O)O)C(C)C)C(C)C [PAL-VGVAPG, Palmitoyl hexapeptide] (HELM PEPTIDE1{[CCCCCCCCCCCCCCCC(=O)[*:2]].V.G.V.A.P.G}$$$$V2.0)",Sol-gel transition pH,[1],7
same,Ionic strength trigger,[1]; sol-gel transition,YES
same,Temperature trigger,[1]; sol-gel transition,YES
same,C0 for sol-gel transition by weight of the composition (w/w),[1]; w/w of the composition,1%
same,Elastin fiber integrated density (FIG. 1B),[2]; 37° C.,significant increase
same,Elastin fiber integrated density (FIG. 1B),[2]; 42° C.,significant increase
same,Elastin van Gieson staining signal (FIG. 1A),[2],increase in signal as temperature increased
same,"Elastin intensity (Elastin van Gieson stain, FIG. 2)",[3]; 12.5 μg/mL,increased
same,"Elastin intensity (Elastin van Gieson stain, FIG. 2)",[3]; 25 μg/mL,increased
same,"Elastin intensity (Elastin van Gieson stain, FIG. 2)",[3]; 50 μg/mL,increased
same,pH level at which peptide self-assembly was observed within the lower layers of the skin,[4],6 and 8
same,Concentration trigger of self-assembly within the skin layers,[6],> 0.01 % w/w
same,Temperature trigger of self-assembly within the skin layers,[6],37 °C
same,pH trigger of self-assembly within the skin layers,[6],7
"C[C@H](NC(=O)[C@H](CC(=O)O)NC(=O)[C@H](C)NC(=O)[C@H](CCCNC(=N)N)NC(=O)[C@H](C)NC(=O)[C@H](CC(=O)O)NC(=O)[C@H](C)NC(=O)[C@H](CCCNC(=N)N)NC(=O)[C@H](C)NC(=O)[C@H](CC(=O)O)NC(=O)[C@H](C)NC(=O)[C@H](CCCNC(=N)N)NC(=O)[C@H](C)NC(=O)[C@H](CC(=O)O)NC(=O)[C@H](C)NC(=O)[C@@H](N)CCCNC(=N)N)C(=O)O [RADARADARADARADA, RADA 16]",Sol-gel transition pH,[1],7
same,Ionic strength trigger,[1]; sol-gel transition,YES
same,C0 for sol-gel transition by weight of the composition (w/w),[1]; w/w of the composition,2%
